How the values were obtained:
Format in all cases: in vivo
[1] = tested on: Winter wheat (TRZAW); assay: Example B8: post application on wheat, with and without safener cloquintocet-mexyl; details: after 13 days, 100 = total damage, 0 = no damage
Experimental: (§1) Application with Safener (Cloquintocet-Mexyl) Winter wheat seeds with a seed treatment of cloquintocet-mexyl applied at a rate of 0.5 g/kg seeds were sown in standard soil in pots. After cultivation for 8 days under controlled conditions in a glasshouse (at 24/16° C., day/night; 14 hours light; 65% humidity), the plants were sprayed with an aqueous spray solution derived from the formulation of the technical active ingredient in acetone/water (50:50) solution containing 0.5% Tween 20 (polyoxyethelyene sorbitan monolaurate, CAS RN 9005-64-5). The test plants were then grown in a glasshouse under controlled conditions in a glasshouse (at 24/16° C., day/night; 14 hours light; 65% humidity) and watered twice daily. After 13 days, the test was evaluated (100=total damage to plant; 0=no damage to plant).

[2] = tested on: Echinochloa crus-galli (ECHCG); assay: Example B7: pre application on weeds, ECHCG; details: 312 h, pre-emergence spray one day after sowing, evaluated after 13 days, read-out: Pre application on weeds, ECHCG (100=total damage to plant; 0=no damage to plant)
Experimental: as §1, with “Lolium perenne (LOLPE), Alopecurus myosuroides (ALOMY), Echinochloa crus-galli (ECHCG) and Avena fatua (AVEFA). Activity Against Weeds Seeds of” for “Application with Safener (Cloquintocet-Mexyl) Winter wheat seeds with”, “variety” for “seed treatment”, “test species” for “cloquintocet-mexyl applied at a rate of 0.5 g/kg seeds”, “one day” for “8 days”

[3] = tested on: Alopecurus myosuroides (ALOMY); assay: Example B7: pre application on weeds, ALOMY; details: 312 h, pre-emergence spray one day after sowing, evaluated after 13 days, read-out: Pre application on weeds, ALOMY (100=total damage to plant; 0=no damage to plant)
Experimental: as §1, with “Lolium perenne (LOLPE), Alopecurus myosuroides (ALOMY), Echinochloa crus-galli (ECHCG) and Avena fatua (AVEFA). Activity Against Weeds Seeds of” for “Application with Safener (Cloquintocet-Mexyl) Winter wheat seeds with”, “variety” for “seed treatment”, “test species” for “cloquintocet-mexyl applied at a rate of 0.5 g/kg seeds”, “one day” for “8 days”

[4] = tested on: Echinochloa crus-galli (ECHCG); assay: Example B6: post application on weeds, ECHCG; details: 312 h, after 13 days, 100 = total damage, 0 = no damage, read-out: ECHCG damage to plant
Experimental: as §1, with “Lolium perenne (LOLPE), Alopecurus myosuroides (ALOMY), Echinochloa crus-galli (ECHCG) and Avena fatua (AVEFA). Activity Against Weeds Seeds of” for “Application with Safener (Cloquintocet-Mexyl) Winter wheat seeds with”, “variety” for “seed treatment”, “test species” for “cloquintocet-mexyl applied at a rate of 0.5 g/kg seeds”

[5] = tested on: Lolium perenne (LOLPE); assay: Example B7: pre application on weeds, LOLPE; details: 312 h, pre-emergence spray one day after sowing, evaluated after 13 days, read-out: Pre application on weeds, LOLPE (100=total damage to plant; 0=no damage to plant)
Experimental: as §1, with “Lolium perenne (LOLPE), Alopecurus myosuroides (ALOMY), Echinochloa crus-galli (ECHCG) and Avena fatua (AVEFA). Activity Against Weeds Seeds of” for “Application with Safener (Cloquintocet-Mexyl) Winter wheat seeds with”, “variety” for “seed treatment”, “test species” for “cloquintocet-mexyl applied at a rate of 0.5 g/kg seeds”, “one day” for “8 days”

[6] = tested on: Avena fatua (AVEFA); assay: Example B7: pre application on weeds, AVEFA; details: 312 h, pre-emergence spray one day after sowing, evaluated after 13 days, read-out: Pre application on weeds, AVEFA (100=total damage to plant; 0=no damage to plant)
Experimental: as §1, with “Lolium perenne (LOLPE), Alopecurus myosuroides (ALOMY), Echinochloa crus-galli (ECHCG) and Avena fatua (AVEFA). Activity Against Weeds Seeds of” for “Application with Safener (Cloquintocet-Mexyl) Winter wheat seeds with”, “variety” for “seed treatment”, “test species” for “cloquintocet-mexyl applied at a rate of 0.5 g/kg seeds”, “one day” for “8 days”

[7] = tested on: Lolium perenne (LOLPE); assay: Example B6: post application on weeds, LOLPE; details: 312 h, after 13 days, 100 = total damage, 0 = no damage, read-out: LOLPE damage to plant
Experimental: as §1, with “Lolium perenne (LOLPE), Alopecurus myosuroides (ALOMY), Echinochloa crus-galli (ECHCG) and Avena fatua (AVEFA). Activity Against Weeds Seeds of” for “Application with Safener (Cloquintocet-Mexyl) Winter wheat seeds with”, “variety” for “seed treatment”, “test species” for “cloquintocet-mexyl applied at a rate of 0.5 g/kg seeds”

[8] = tested on: Alopecurus myosuroides (ALOMY); assay: Example B6: post application on weeds, ALOMY; details: 312 h, after 13 days, 100 = total damage, 0 = no damage, read-out: ALOMY damage to plant
Experimental: as §1, with “Lolium perenne (LOLPE), Alopecurus myosuroides (ALOMY), Echinochloa crus-galli (ECHCG) and Avena fatua (AVEFA). Activity Against Weeds Seeds of” for “Application with Safener (Cloquintocet-Mexyl) Winter wheat seeds with”, “variety” for “seed treatment”, “test species” for “cloquintocet-mexyl applied at a rate of 0.5 g/kg seeds”

[9] = tested on: Avena fatua (AVEFA); assay: Example B6: post application on weeds, AVEFA; details: 312 h, after 13 days, 100 = total damage, 0 = no damage, read-out: AVEFA damage to plant
Experimental: as §1, with “Lolium perenne (LOLPE), Alopecurus myosuroides (ALOMY), Echinochloa crus-galli (ECHCG) and Avena fatua (AVEFA). Activity Against Weeds Seeds of” for “Application with Safener (Cloquintocet-Mexyl) Winter wheat seeds with”, “variety” for “seed treatment”, “test species” for “cloquintocet-mexyl applied at a rate of 0.5 g/kg seeds”

[10] = 250 g/ha + 0.5 g/kg seeds cloquintocet-mexyl
[11] = 62.5 g/ha + 0.5 g/kg seeds cloquintocet-mexyl

## COc1cc(C)cc(C)c1C1C(=O)N2CCN(OC)CCN2C1=O [Compound P2.12]
[1]; [10]
  TRZAW damage to plant: 30
[1]; 250 g/ha, without safener
  TRZAW damage to plant: 70
[2]
  pest or weed control at 250 g/ha: 60%
[3]
  pest or weed control at 250 g/ha: 80%
[4]
  pest or weed control at 250 g/ha: 90%
[5]
  pest or weed control at 250 g/ha: 70%
[6]
  pest or weed control at 250 g/ha: 60%
[7]
  pest or weed control at 250 g/ha: 80%
[8]
  pest or weed control at 250 g/ha: 80%
[9]
  pest or weed control at 250 g/ha: 80%

## CCOC(=O)Oc1c(-c2c(C)cc(C)cc2C)c(=O)n2n1CCN(OC)CC2 [Compound P1.2, Carbonic acid ethyl ester 3-methoxy-9-oxo-8-(2,4,6-trimethyl-phenyl)-2,3,4,5-tetrahydro-1H,9H-pyrazolo[1,2-a][1,2,5]triazepin-7-yl ester]
[1]; [10]
  TRZAW damage to plant: 30
[1]; 250 g/ha, without safener
  TRZAW damage to plant: 80
[2]
  pest or weed control at 250 g/ha: 40%
[3]
  pest or weed control at 250 g/ha: 80%
[4]
  pest or weed control at 250 g/ha: 100%
[5]
  pest or weed control at 250 g/ha: 90%
[6]
  pest or weed control at 250 g/ha: 80%
[7]
  pest or weed control at 250 g/ha: 100%
[8]
  pest or weed control at 250 g/ha: 50%
[9]
  pest or weed control at 250 g/ha: 100%

## CCOC(=O)Oc1c(-c2c(Cl)cc(C)cc2Br)c(=O)n2n1CCN(OC)CC2 [Compound P1.11]
[1]; [10]
  TRZAW damage to plant: 10
[1]; 250 g/ha, without safener
  TRZAW damage to plant: 60
[2]
  pest or weed control at 250 g/ha: 80%
[3]
  pest or weed control at 250 g/ha: 100%
[4]
  pest or weed control at 250 g/ha: 60%
[5]
  pest or weed control at 250 g/ha: 90%
[6]
  pest or weed control at 250 g/ha: 70%
[7]
  pest or weed control at 250 g/ha: 80%
[8]
  pest or weed control at 250 g/ha: 80%
[9]
  pest or weed control at 250 g/ha: 70%

## CCOC(=O)Oc1c(-c2c(C)cc(Br)cc2C)c(=O)n2n1CCN(OC)CC2 [Compound P1.10]
[1]; [10]
  TRZAW damage to plant: 30
[1]; 250 g/ha, without safener
  TRZAW damage to plant: 60
[2]
  pest or weed control at 250 g/ha: 60%
[3]
  pest or weed control at 250 g/ha: 70%
[4]
  pest or weed control at 250 g/ha: 60%
[5]
  pest or weed control at 250 g/ha: 70%
[6]
  pest or weed control at 250 g/ha: 40%
[7]
  pest or weed control at 250 g/ha: 70%
[8]
  pest or weed control at 250 g/ha: 80%
[9]
  pest or weed control at 250 g/ha: 70%

## CCOC(=O)Oc1c(-c2c(C)cc(Cl)cc2Br)c(=O)n2n1CCN(OC)CC2 [Compound P1.12]
[1]; [10]
  TRZAW damage to plant: 30
[1]; 250 g/ha, without safener
  TRZAW damage to plant: 60
[2]
  pest or weed control at 250 g/ha: 0%
[3]
  pest or weed control at 250 g/ha: 90%
[4]
  pest or weed control at 250 g/ha: 50%
[5]
  pest or weed control at 250 g/ha: 100%
[6]
  pest or weed control at 250 g/ha: 10%
[7]
  pest or weed control at 250 g/ha: 70%
[8]
  pest or weed control at 250 g/ha: 80%
[9]
  pest or weed control at 250 g/ha: 70%

## CCOC(=O)Oc1c(-c2c(C)cc(C)cc2OC)c(=O)n2n1CCN(OC)CC2 [Compound P1.9]
[1]; [10]
  TRZAW damage to plant: 60
[1]; 250 g/ha, without safener
  TRZAW damage to plant: 80
[2]
  pest or weed control at 250 g/ha: 70%
[3]
  pest or weed control at 250 g/ha: 70%
[4]
  pest or weed control at 250 g/ha: 100%
[5]
  pest or weed control at 250 g/ha: 80%
[6]
  pest or weed control at 250 g/ha: 80%
[7]
  pest or weed control at 250 g/ha: 90%
[8]
  pest or weed control at 250 g/ha: 90%
[9]
  pest or weed control at 250 g/ha: 90%

## C#Cc1cc(C)cc(C)c1-c1c(OC(=O)OCC)n2n(c1=O)CCN(OC)CC2 [Compound P1.5]
[1]; [11]
  TRZAW damage to plant: 20
[1]; 62.5 g/ha, without safener
  TRZAW damage to plant: 80
[2]
  pest or weed control at 250 g/ha: 20%
[3]
  pest or weed control at 250 g/ha: 40%
[4]
  pest or weed control at 250 g/ha: 100%
[5]
  pest or weed control at 250 g/ha: 30%
[6]
  pest or weed control at 250 g/ha: 90%
[7]
  pest or weed control at 250 g/ha: 90%
[8]
  pest or weed control at 250 g/ha: 100%
[9]
  pest or weed control at 250 g/ha: 100%

## CCOC(=O)Oc1c(-c2cc(-c3ccc(Cl)cc3)ccc2C)c(=O)n2n1CCN(OC)CC2 [Compound P1.7]
[1]; [11]
  TRZAW damage to plant: 40
[1]; 62.5 g/ha, without safener
  TRZAW damage to plant: 80
[2]
  pest or weed control at 250 g/ha: 0%
[3]
  pest or weed control at 250 g/ha: 0%
[4]
  pest or weed control at 250 g/ha: 80%
[5]
  pest or weed control at 250 g/ha: 0%
[6]
  pest or weed control at 250 g/ha: 0%
[7]
  pest or weed control at 250 g/ha: 70%
[8]
  pest or weed control at 250 g/ha: 70%
[9]
  pest or weed control at 250 g/ha: 100%

## CON1CCn2c(OC(=O)C(C)(C)C)c(-c3c(C)cc(C)cc3C)c(=O)n2CC1 [Compound P1.1, 2,2-Dimethyl-propionic acid 3-methoxy-9-oxo-8-(2,4,6-trimethyl-phenyl)-2,3,4,5-tetrahydro-1H,9H-pyrazolo[1,2-a][1,2,5]triazepin-7-yl ester]
[1]; [10]
  TRZAW damage to plant: 50
[1]; 250 g/ha, without safener
  TRZAW damage to plant: 70
[2]
  pest or weed control at 250 g/ha: 20%
[3]
  pest or weed control at 250 g/ha: 90%
[4]
  pest or weed control at 250 g/ha: 100%
[5]
  pest or weed control at 250 g/ha: 100%
[6]
  pest or weed control at 250 g/ha: 50%
[7]
  pest or weed control at 250 g/ha: 100%
[8]
  pest or weed control at 250 g/ha: 100%
[9]
  pest or weed control at 250 g/ha: 100%

## C#Cc1cc(C)c(C2C(=O)N3CCN(OC)CCN3C2=O)c(C)c1 [Compound P2.8]
[1]; [10]
  TRZAW damage to plant: 10
[1]; 250 g/ha, without safener
  TRZAW damage to plant: 40
[2]
  pest or weed control at 250 g/ha: 10%
[3]
  pest or weed control at 250 g/ha: 80%
[4]
  pest or weed control at 250 g/ha: 60%
[5]
  pest or weed control at 250 g/ha: 60%
[6]
  pest or weed control at 250 g/ha: 10%
[7]
  pest or weed control at 250 g/ha: 70%
[8]
  pest or weed control at 250 g/ha: 60%
[9]
  pest or weed control at 250 g/ha: 40%

## CON1CCN2C(=O)C(c3c(C)cc(Cl)cc3C)C(=O)N2CC1 [Compound P2.2, 8-(4-Chloro-2,6-dimethyl-phenyl)-3-methoxy-tetrahydro-pyrazolo[1,2-a][1,2,5]triazepine-7,9-dione]
[1]; [10]
  TRZAW damage to plant: 20
[1]; 250 g/ha, without safener
  TRZAW damage to plant: 30
[2]
  pest or weed control at 250 g/ha: 70%
[3]
  pest or weed control at 250 g/ha: 80%
[4]
  pest or weed control at 250 g/ha: 60%
[5]
  pest or weed control at 250 g/ha: 80%
[6]
  pest or weed control at 250 g/ha: 50%
[7]
  pest or weed control at 250 g/ha: 70%
[8]
  pest or weed control at 250 g/ha: 70%
[9]
  pest or weed control at 250 g/ha: 50%
